Activity calls are given as the source filed them.
Key:
[1] = test system: HL-60(TB); test: Growth inhibition of human HL-60(TB) cells at 10 uM after 48 hrs by sulforhodamine B assay; type: functional; conditions: HL-60, 48 h, read-out: GI
[2] = test system: SR; test: Growth inhibition of human SR cells at 10 uM after 48 hrs by sulforhodamine B assay; type: functional; conditions: read-out: GI
[3] = test system: MCF7; test: Growth inhibition of human MCF7 cells at 10 uM after 48 hrs by sulforhodamine B assay; type: functional
[4] = test system: RXF 393; test: Growth inhibition of human RXF393 cells at 10 uM after 48 hrs by sulforhodamine B assay; type: functional
[5] = test system: CAKI-1; test: Growth inhibition of human CAKI-1 cells at 10 uM after 48 hrs by sulforhodamine B assay; type: functional
[6] = test system: OVCAR-3; test: Growth inhibition of human OVCAR3 cells at 10 uM after 48 hrs by sulforhodamine B assay; type: functional
[7] = test system: IGROV-1; test: Growth inhibition of human IGROV1 cells at 10 uM after 48 hrs by sulforhodamine B assay; type: functional
[8] = test system: K562; test: Growth inhibition of human K562 cells at 10 uM after 48 hrs by sulforhodamine B assay; type: functional; conditions: K562, 48 h, read-out: GI
[9] = test system: A498; test: Growth inhibition of human A498 cells at 10 uM after 48 hrs by sulforhodamine B assay; type: functional; conditions: A498, 48 h, read-out: GI
[10] = test system: HT-29; test: Growth inhibition of human HT-29 cells at 10 uM after 48 hrs by sulforhodamine B assay; type: functional
[11] = test system: HCT-116; test: Growth inhibition of human HCT116 cells at 10 uM after 48 hrs by sulforhodamine B assay; type: functional; conditions: HCT-116, 48 h, read-out: GI
[12] = test system: UACC-62; test: Growth inhibition of human UACC62 cells at 10 uM after 48 hrs by sulforhodamine B assay; type: functional
[13] = test system: DU-145; test: Growth inhibition of human DU145 cells at 10 uM after 48 hrs by sulforhodamine B assay; type: functional
[14] = test system: NCI-H460; test: Growth inhibition of human NCI-H460 cells at 10 uM after 48 hrs by sulforhodamine B assay; type: functional
[15] = test system: KM12; test: Growth inhibition of human KM12 cells at 10 uM after 48 hrs by sulforhodamine B assay; type: functional; conditions: KM12, 48 h, read-out: GI
[16] = test system: SK-MEL-28; test: Growth inhibition of human SK-MEL-28 cells at 10 uM after 48 hrs by sulforhodamine B assay; type: functional, cell-based
[17] = test system: SF-539; test: Growth inhibition of human SF539 cells at 10 uM after 48 hrs by sulforhodamine B assay; type: functional; conditions: SF-539, 48 h, read-out: GI
[18] = test system: Malme-3M; test: Growth inhibition of human MALME-3M cells at 10 uM after 48 hrs by sulforhodamine B assay; type: functional; conditions: read-out: GI
[19] = test system: OVCAR-4; test: Growth inhibition of human OVCAR4 cells at 10 uM after 48 hrs by sulforhodamine B assay; type: functional
[20] = test system: T47D; test: Growth inhibition of human T47D cells at 10 uM after 48 hrs by sulforhodamine B assay; type: functional
[21] = test system: NCI/ADR-RES; test: Growth inhibition of human NCI-ADR-RES cells at 10 uM after 48 hrs by sulforhodamine B assay; type: functional
[22] = test system: A549; test: Growth inhibition of human A549/ATCC cells at 10 uM after 48 hrs by sulforhodamine B assay; type: functional
[23] = test system: Hs-578T; test: Growth inhibition of human Hs 578T cells at 10 uM after 48 hrs by sulforhodamine B assay; type: functional
[24] = test system: MDA-MB-231; test: Growth inhibition of human MDA-MB-231 cells at 10 uM after 48 hrs by sulforhodamine B assay; type: functional
[25] = test system: SF-268; test: Growth inhibition of human SF268 cells at 10 uM after 48 hrs by sulforhodamine B assay; type: functional; conditions: SF-268, 48 h, read-out: GI
[26] = test system: OVCAR-8; test: Growth inhibition of human OVCAR8 cells at 10 uM after 48 hrs by sulforhodamine B assay; type: functional
[27] = test system: NCI-H23; test: Growth inhibition of human NCI-H23 cells at 10 uM after 48 hrs by sulforhodamine B assay; type: functional; conditions: NCI-H23, 48 h, read-out: GI
[28] = test system: ACHN; test: Growth inhibition of human ACHN cells at 10 uM after 48 hrs by sulforhodamine B assay; type: functional
[29] = test system: SK-MEL-2; test: Growth inhibition of human SK-MEL-2 cells at 10 uM after 48 hrs by sulforhodamine B assay; type: functional
[30] = test system: MDA-MB-435; test: Growth inhibition of human MDA-MB-435 cells at 10 uM after 48 hrs by sulforhodamine B assay; type: functional
[31] = test system: NCI-H226; test: Growth inhibition of human NCI-H226 cells at 10 uM after 48 hrs by sulforhodamine B assay; type: functional; conditions: NCI-H226, 48 h, read-out: GI
[32] = test system: NCI-H322M; test: Growth inhibition of human NCI-H322M cells at 10 uM after 48 hrs by sulforhodamine B assay; type: functional
[33] = test system: UACC-257; test: Growth inhibition of human UACC257 cells at 10 uM after 48 hrs by sulforhodamine B assay; type: functional
[34] = test system: SN12C; test: Growth inhibition of human SN12C cells at 10 uM after 48 hrs by sulforhodamine B assay; type: functional
[35] = test system: M14; test: Growth inhibition of human M14 cells at 10 uM after 48 hrs by sulforhodamine B assay; type: functional; conditions: M14, 48 h, read-out: GI
[36] = test system: 786-0; test: Growth inhibition of human 786-0 cells at 10 uM after 48 hrs by sulforhodamine B assay; type: functional; conditions: 786-0, 48 h, read-out: GI
[37] = test system: EKVX; test: Growth inhibition of human EKVX cells at 10 uM after 48 hrs by sulforhodamine B assay; type: functional
[38] = test system: UO-31; test: Growth inhibition of human UO31 cells at 10 uM after 48 hrs by sulforhodamine B assay; type: functional; conditions: UO-31, 48 h, read-out: GI
[39] = test system: BT-549; test: Growth inhibition of human BT549 cells at 10 uM after 48 hrs by sulforhodamine B assay; type: functional; conditions: BT-549, 48 h, read-out: GI
[40] = test system: HCC 2998; test: Growth inhibition of human HCC2998 cells at 10 uM after 48 hrs by sulforhodamine B assay; type: functional
[41] = test system: U-251; test: Growth inhibition of human U251 cells at 10 uM after 48 hrs by sulforhodamine B assay; type: functional
[42] = test system: SNB-19; test: Growth inhibition of human SNB19 cells at 10 uM after 48 hrs by sulforhodamine B assay; type: functional
[43] = test system: SK-MEL-5; test: Growth inhibition of human SK-MEL-5 cells at 10 uM after 48 hrs by sulforhodamine B assay; type: functional
[44] = test system: MDA-MB-468; test: Growth inhibition of human MDA-MB-468 cells at 10 uM after 48 hrs by sulforhodamine B assay; type: functional
[45] = test system: SF-295; test: Growth inhibition of human SF295 cells at 10 uM after 48 hrs by sulforhodamine B assay; type: functional
[46] = test system: SK-OV-3; test: Growth inhibition of human SKOV3 cells at 10 uM after 48 hrs by sulforhodamine B assay; type: functional
[47] = test system: MOLT-4; test: Growth inhibition of human MOLT4 cells at 10 uM after 48 hrs by sulforhodamine B assay; type: functional; conditions: MOLT-4, 48 h, read-out: GI
[48] = test system: HCT-15; test: Growth inhibition of human HCT15 cells at 10 uM after 48 hrs by sulforhodamine B assay; type: functional
[49] = test system: HOP-62; test: Growth inhibition of human HOP62 cells at 10 uM after 48 hrs by sulforhodamine B assay; type: functional
[50] = test system: SNB-75; test: Growth inhibition of human SNB75 cells at 10 uM after 48 hrs by sulforhodamine B assay; type: functional; conditions: SNB-75, 48 h, read-out: GI
[51] = test system: COLO 205; test: Growth inhibition of human COLO205 cells at 10 uM after 48 hrs by sulforhodamine B assay; type: functional
[52] = test system: TK-10; test: Growth inhibition of human TK10 cells at 10 uM after 48 hrs by sulforhodamine B assay; type: functional
[53] = test system: OVCAR-5; test: Growth inhibition of human OVCAR5 cells at 10 uM after 48 hrs by sulforhodamine B assay; type: functional
[54] = test system: NCI-H522; test: Growth inhibition of human NCI-H522 cells at 10 uM after 48 hrs by sulforhodamine B assay; type: functional
[55] = molecular target: Carbonic anhydrase 9 (Homo sapiens, UniProt Q16790); test: Inhibition of human carbonic anhydrase 9 after 15 mins by stopped flow CO2 hydration assay
[56] = test system: LOX IMVI; test: Growth inhibition of human LOXIMVI cells at 10 uM after 48 hrs by sulforhodamine B assay; type: functional; conditions: read-out: GI
[57] = test system: SW-620; test: Growth inhibition of human SW620 cells at 10 uM after 48 hrs by sulforhodamine B assay; type: functional

NS(=O)(=O)c1cnccc1N1CCN(Cc2ccccc2)CC1
6%: inhibition of growth at 10 µM [11] | inhibition of growth at 10 µM [17] | inhibition of growth at 10 µM [36]
4%: inhibition of growth at 10 µM [56]
3%: inhibition of growth at 10 µM [8] | inhibition of growth at 10 µM [25]
13%: inhibition of growth at 10 µM [2]
1%: inhibition of growth at 10 µM [15] | inhibition of growth at 10 µM [18] | inhibition of growth at 10 µM [27] | inhibition of growth at 10 µM [31]
8%: inhibition of growth at 10 µM [1]
7%: inhibition of growth at 10 µM [50]
14%: inhibition of growth at 10 µM [38]
9%: inhibition of growth at 10 µM [39]
5%: inhibition of growth at 10 µM [9] | inhibition of growth at 10 µM [47]
inactive: growth inhibition (GI) [3] | growth inhibition (GI) [4] | growth inhibition (GI) [5] | growth inhibition (GI) [6] | growth inhibition (GI) [7] | growth inhibition (GI) [10] | growth inhibition (GI) [12] | growth inhibition (GI) [13] | growth inhibition (GI) [14] | growth inhibition (GI) [16] | growth inhibition (GI) [19] | growth inhibition (GI) [20] | growth inhibition (GI) [21] | growth inhibition (GI) [22] | growth inhibition (GI) [23] | growth inhibition (GI) [24] | growth inhibition (GI) [26] | growth inhibition (GI) [28] | growth inhibition (GI) [29] | growth inhibition (GI) [30] | growth inhibition (GI) [32] | growth inhibition (GI) [33] | growth inhibition (GI) [34] | growth inhibition (GI) [37] | growth inhibition (GI) [40] | growth inhibition (GI) [41] | growth inhibition (GI) [42] | growth inhibition (GI) [43] | growth inhibition (GI) [44] | growth inhibition (GI) [45] | growth inhibition (GI) [46] | growth inhibition (GI) [48] | growth inhibition (GI) [49] | growth inhibition (GI) [51] | growth inhibition (GI) [52] | growth inhibition (GI) [53] | growth inhibition (GI) [54] | growth inhibition (GI) [57]
2%: inhibition of growth at 10 µM [35]
45.1 nM: Ki [55]

CCOC(=O)CCc1c(C)nn(-c2ccncc2S(N)(=O)=O)c1C
19.5 nM: Ki [55]

— ChEMBL document CHEMBL2434896, “Carbonic anhydrase inhibitors. Synthesis of heterocyclic 4-substituted pyridine-3-sulfonamide derivatives and their inhibition of the human cytosolic isozymes I and II and transmembrane tumor-associated isozymes IX and XII” (Eur J Med Chem, 2013)
